# Results published in patent publication EP1640447A1, “BIOACTIVE PEPTIDE-PRODUCING STRAINS OF i ENTEROCOCCUS FAECALIS /i , BIOACTIVE PEPTIDES AND APPLICATIONS THEREOF” (Grupo Leche Pascual S.A., priority 2003, dated 2004).
# Marks after values point to notes of the source that are not given here.
# Assays:
# [1] = system: spontaneously hypertensive rats (SHR); experiment: Blood pressure (tail cuff) after acute intragastric administration in spontaneously hypertensive rats; type: in vivo; settings: Captopril 50 mg/kg; for variation of diastolic blood pressure / variation of systolic blood pressure: mean ± standard error
# Procedure: (§1) Male SHR and WKY rats of 17-20 weeks of age and weight comprised between 250 and 300 g were used, obtained from Charles River Laboratories Espana S.A.. The rats were kept at a stable ambient temperature of 23°C and with 12 hour light-dark cycles, taking water and food at will. The measurement of blood pressure in these animals was carried out by means of a modification of the tail cuff technique, originally disclosed by Buñag (Buñag RD. 1973. J Appl Physiol 34:79). This technique usually allows obtaining only systolic blood pressure (SBP) measurements; however, the equipment used in this study (Le50001 Letica model) allows differentiating the SBP and the diastolic blood pressure (DBP) of the animals, as it automatically provides the digital value of both parameters. For this reason the modification of the SBP and the DBP produced by the acute administration of the fermented milks and the peptides were tested in this study. Before placing the cuff on the tails of the rats, these were exposed to a temperature close to 30°C in order to facilitate the dilation of the caudal artery, and they were lightly anaesthetized with diethyl ether according to the process disclosed by Dietz et al. (Dietz R, Schömig A, Haebara H et al. 1978. Circ Res 43: I98-I106) in order to minimize the effect of stress on the measurement. Furthermore, in order to ensure the reliability of the measurement, the animals were familiarized with the process 2 weeks prior to performing the test in question.
# The administration of the products to be tested was performed by means of intragastric probe in a time margin comprised between 9 and 10 am. The SHR rats used for the study had at that time SBP and DBP values comprised respectively between 240 and 290 mm Hg, and between 200 and 250 mm Hg. The WKY rats used for the study had at that time SBP and DBP values comprised respectively between 160 and 200 mm Hg, and between 100 and 140 mm Hg. SBP and DBP measurements were taken periodically in the animals, every 2 hours, up to 8 hours post-administration of the products to be tested; an additional measurement of both variables (SBP and DBP) was taken 24 hours after administration of said products.
# In the case of the fermented milks, the supernatant (whey) obtained by centrifugation at 20,000 x g for 10 minutes of the milk fermented and pasteurized at 75°C for 1 minute following the process described in Example 2 was used as an administration product. From the corresponding supernatant a single administration of 5 mL/kg of animal body weight was used.
# In the tests with peptide SEQ. ID. NO: 1 a single administration was also performed, and the dose used (2 mg/kg) was equivalent in ACEI activity units to the 5 mL/kg dose of supernatant of the milks fermented by E. faecalis CECT 5727, E. faecalis CECT 5728, E. faecalis CECT 5826 and E. faecalis CECT 5827. […] The most significant results were obtained with the peptide identified by SEQ. ID. NO: 1.
# As a negative control (to establish the circadian variation of the SBP and the DBP in probed rats) the measurements obtained in rats that were administered 1 mL of water by intragastric probe were used. As a positive control (to establish the effect on the SBP and the DBP of a prototype ACEI drug, such as Captopril) the measurements of […] obtained in that were administered 50 mg /kg of Captopril by intragastric probe were used. This dose of Captopril was administered to each rat in a volume of 1 mL.
# The results obtained were grouped and the mean ± standard error of the mean (SEM) for a minimum of 7 homogeneous tests was obtained. The data from treated animals was contrasted to one another and with the data considered as negative control. […]
# Wistar-Kyoto rats (WKY) = experiment: Blood pressure (tail cuff) after acute intragastric administration in normotensive Wistar-Kyoto rats; type: in vivo; settings: whey 5 mL/kg, Captopril 50 mg/kg, LSD test at each time
# Procedure: as §1, with “Furthermore, in order to ensure the reliability of the measurement, the animals were familiarized with the process 2 weeks prior to performing the test in question.” left out
# [2] = Time 2 h after single intragastric administration, whey 5 mL/kg
# [3] = Time 4 h after single intragastric administration, whey 5 mL/kg
# [4] = Time 6 h after single intragastric administration, whey 5 mL/kg
# [5] = Time 8 h after single intragastric administration, whey 5 mL/kg
# [6] = Time 24 h after single intragastric administration, whey 5 mL/kg
# [7] = single intragastric administration, whey 5 mL/kg, peptide 2 mg/kg
structure (smiles),measurement,setting,value
C[C@H](CS)C(=O)N1CCC[C@H]1C(=O)O [Captopril],time after administration of maximum reduction / smallest values of DBP,"[1]; peptide 2 mg/kg, intragastric",4 h
same,time after administration of maximum reduction / smallest values of SBP,"[1]; whey 5 mL/kg, peptide 2 mg/kg, intragastric",6 h
same,variation of diastolic blood pressure,[1]; [2],-28.29±2.40^a
same,variation of systolic blood pressure,[1]; [2],-36.08±4.52^a
same,variation of diastolic blood pressure,[1]; [3],-34.90±5.34^a
same,variation of systolic blood pressure,[1]; [3],-51.98±5.36^a
same,variation of diastolic blood pressure,[1]; [4],-28.63±5.77^a
same,variation of systolic blood pressure,[1]; [4],-54.19±5.11^a
same,variation of diastolic blood pressure,[1]; [5],-26.67±7.94^a
same,variation of systolic blood pressure,[1]; [5],-35.44±4.70^a
same,variation of diastolic blood pressure,[1]; [6],1.37±1.02^a
same,variation of systolic blood pressure,[1]; [6],1.23±1.49^a
same,reduction in DBP (in words),[1]; [7],pronounced reduction
same,reduction in SBP (in words),[1]; [7],pronounced reduction
same,changes in DBP,Wistar-Kyoto rats (WKY),no significant differences
same,changes in SBP,Wistar-Kyoto rats (WKY),no significant differences
